# Measurements taken from publication PMC4122355, “Inhibitor of the Tyrosine Phosphatase STEP Reverses Cognitive Deficits in a Mouse Model of Alzheimer's Disease” (PLoS Biology, 2014).
# Columns and labels:
# [1] = molecular target: T1, PTP1B (Homo sapiens, UniProt P18031); assay: Selectivity pNPP assay, full-length PTPs: PTP1B; type: biochemical; details: full-length PTP, 10 nM, 500 µM pNPP
# T1 construct: GST (N); host or cells: E. coli BL21 (DE3)
# T1 sequence (P18031 1-435): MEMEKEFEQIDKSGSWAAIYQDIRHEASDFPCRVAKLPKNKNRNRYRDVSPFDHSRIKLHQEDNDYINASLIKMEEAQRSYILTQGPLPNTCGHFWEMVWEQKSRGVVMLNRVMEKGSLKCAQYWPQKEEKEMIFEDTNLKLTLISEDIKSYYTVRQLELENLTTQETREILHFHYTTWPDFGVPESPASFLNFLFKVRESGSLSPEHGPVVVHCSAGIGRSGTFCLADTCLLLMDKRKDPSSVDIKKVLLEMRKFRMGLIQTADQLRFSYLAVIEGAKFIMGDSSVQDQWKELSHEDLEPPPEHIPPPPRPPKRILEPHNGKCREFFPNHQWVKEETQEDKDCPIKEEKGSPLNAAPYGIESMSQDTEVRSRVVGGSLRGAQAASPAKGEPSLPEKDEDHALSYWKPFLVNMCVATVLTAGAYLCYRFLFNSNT
# Text: Constructs were transformed into BL21 (DE3) E. coli cells. Fusion proteins were purified on a glutathione sepharose column.
# [2] = system: GluN2B Y1472, Pyk2 Y402, ERK1/2 Y204/187 in WT and STEP KO cortical neurons; assay: Tyr phosphorylation of STEP substrates in WT and STEP KO mouse cortical cultures; type: cell-based; details: 1 h
# Procedure: Primary cortical neurons were isolated from Sprague Dawley rat embryos (E18) (Charles River Laboratories, Wilmington, MA) as previously described. In some experiments, cortical neurons were made from WT and STEP KO mouse embryos (E18). Neurons were allowed to grow for 18–21 d in CO2 incubator before addition of compounds at indicated doses for 1 h. Immediately following treatments, neurons were lysed in RadioImmuno Precipitation Assay (RIPA) buffer supplied with protease inhibitor cocktail (Roche Applied Science, Indianapolis, IN) and phosphatase inhibitors (NaF and Na3VO4). All experiments were replicated four times with four independent batches of cultures.
# Samples were prepared and resolved by SDS-PAGE, transferred to nitrocellulose membrane, and incubated with phospho-specific antibodies (anti-pY^204/187 ERK1/2, anti-pY^402 Pyk2, anti-pY^1472 GluN2B) or total protein antibodies (anti-ERK2, anti-Pyk2, and anti-NR2B) overnight at 4°C. Immunoreactivity was visualized using a Chemiluminescent substrate kit (Pierce Biotechnology, Rockford, IL) and detected using a G:BOX with the image program GeneSnap (Syngene, Cambridge, UK). All densitometric quantifications were performed using the Genetools program.
# [3] = system: cortical cultures; assay: LDH release toxicity assay in cortical cultures; type: cell-based; details: up to 100 µM, up to 48 h, compared to positive controls
# Procedure: Bovine LDH was used as a LDH-positive control. The media was collected and analyzed for LDH. The assay quantitatively measures LDH, a stable cytosolic enzyme that is released upon cell lysis. Released LDH in culture supernatants is measured with a 30-min coupled enzymatic assay, which results in the conversion of a tetrazolium salt (INT) into a red formazan product. The amount of color formed is proportional to the number of lysed cells.
# [4] = molecular target: T2, STEP (Mus musculus, UniProt P54830); assay: Recovery of STEP activity by reducing agents; type: biochemical; details: after 1 h, DMSO control = 100%
# T2 sequence (P54830 1-541): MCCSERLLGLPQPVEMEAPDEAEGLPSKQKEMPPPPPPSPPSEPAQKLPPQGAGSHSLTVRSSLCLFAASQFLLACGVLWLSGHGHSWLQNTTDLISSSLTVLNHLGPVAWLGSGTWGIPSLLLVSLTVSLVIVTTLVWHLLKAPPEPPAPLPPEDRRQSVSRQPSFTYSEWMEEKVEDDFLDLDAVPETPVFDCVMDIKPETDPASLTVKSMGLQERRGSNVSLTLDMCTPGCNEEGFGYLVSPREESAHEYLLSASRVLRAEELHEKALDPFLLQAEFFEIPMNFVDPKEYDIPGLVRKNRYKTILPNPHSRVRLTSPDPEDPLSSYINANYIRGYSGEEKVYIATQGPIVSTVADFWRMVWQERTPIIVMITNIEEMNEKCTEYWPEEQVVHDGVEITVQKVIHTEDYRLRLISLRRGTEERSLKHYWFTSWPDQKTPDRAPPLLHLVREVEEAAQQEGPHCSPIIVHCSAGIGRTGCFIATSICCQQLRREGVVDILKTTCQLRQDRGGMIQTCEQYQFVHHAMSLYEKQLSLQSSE
# Procedure: Each sample was aliquoted out and 50 µL was transferred to wells of a 96-well microtiter plate containing 40 µL of 2× assay buffer with added reductant (GSH or DTT, 1 mM final concentration) and shaken for 0, 15, 30, or 60 additional minutes at ambient temperature. The reaction was started by addition of 10 µL of 10× pNPP substrate (stock, 20 mM, 2 mM in assay; total assay volume, 100 µL), and reaction progress was immediately monitored at 405 nm at a temperature of 27°C. The initial rate data collected were used to determine enzyme activity standardized to the DMSO controls.
# [5] = system: 3xTg-AD and WT mice; assay: Morris water maze (MWM), reference memory version; type: in vivo, mouse
# Procedure: The reference memory version of the MWM task was performed as described previously. A crossover design was not used in the MWM task, as the mice were randomly assigned to each treatment condition and can be exposed to the task only once. Briefly, animals were trained to swim in a 1.4 m diameter pool to find a submerged platform (14 cm in diameter) located 1 cm below the surface of water (24°C), rendered opaque by the addition of nontoxic white paint. Animals were pseudo-randomly started from a different position at each trial and used distal visual-spatial cues to find the hidden escape platform that remained in the center of the same quadrant throughout all training days. Training measures included escape latency to reach the platform, swim speed, and thigmotaxis. […] At 24 h after the acquisition phase, the platform was removed and a probe trial of 90 s was given to evaluate the number of entries in a circular zone (three times the platform diameter) positioned around the previous platform location (target zone) and in the opposite quadrants. To assess visual deficits and motivation to escape from water, the probe test was followed by a cued task (60 s; three trials per animal) during which the platform was visible. The visible platform was moved to different locations between each trial. After each trial, animals were immediately placed under a warming lamp to dry to prevent hypothermia. […] Behavioral data from training, probe, and cued trials were acquired and analyzed using the ANY-maze automated tracking system (Stoelting, IL, USA).
# [6] = cited from earlier work
# [7] = molecular target: PTP-SL (Homo sapiens, UniProt Q15256); assay: biochemical
# PTP-SL, sequence (Q15256 22-657): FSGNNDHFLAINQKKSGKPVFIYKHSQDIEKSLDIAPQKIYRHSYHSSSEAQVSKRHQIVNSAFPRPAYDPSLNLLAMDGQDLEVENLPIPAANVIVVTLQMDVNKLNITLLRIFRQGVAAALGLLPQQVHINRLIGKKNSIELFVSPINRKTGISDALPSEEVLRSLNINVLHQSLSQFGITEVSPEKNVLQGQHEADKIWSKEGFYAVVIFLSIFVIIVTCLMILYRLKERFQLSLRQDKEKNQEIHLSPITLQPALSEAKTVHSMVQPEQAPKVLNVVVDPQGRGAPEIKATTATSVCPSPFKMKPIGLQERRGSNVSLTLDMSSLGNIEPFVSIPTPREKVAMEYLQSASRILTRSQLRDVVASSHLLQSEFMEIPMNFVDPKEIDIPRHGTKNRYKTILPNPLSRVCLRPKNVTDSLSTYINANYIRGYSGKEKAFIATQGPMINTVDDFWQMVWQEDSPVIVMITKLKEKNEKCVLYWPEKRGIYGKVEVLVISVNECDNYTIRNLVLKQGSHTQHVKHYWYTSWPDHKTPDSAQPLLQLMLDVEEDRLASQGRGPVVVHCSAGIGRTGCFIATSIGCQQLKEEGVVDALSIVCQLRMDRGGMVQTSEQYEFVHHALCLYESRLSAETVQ
# Procedure: Full-length HePTP and PTP-SL proteins were purchased from Abnova (Taipei, Taiwan). All proteins were dialyzed in 1,000-fold volume of buffer, which was repeated three times. […] After 10 min preincubation of enzyme and inhibitor at 27°C, 500 µM of pNPP was added and incubated for 30 min. Absorbance was taken at 405 nm using a Biotek plate reader.
compound,measurement,setting,value
"Cl.Nc1cc(C(F)(F)F)cc2c1SSSSS2 [TC-2153, 8-(trifluoromethyl)-1,2,3,4,5-benzopentathiepin-6-amine hydrochloride]",IC50,[1],723.9 ± 1.2 nM
same,Tyr phosphorylation of STEP substrates in STEP KO cortical cultures,"[2]; STEP KO cultures, TC-2153 0.1 and 1 µM, Na3VO4 1 mM",failed to increase the phosphorylation of STEP substrates
same,Tyr phosphorylation of STEP substrates in WT mouse cortical neurons,"[2]; WT cultures, 0.1 and 1 µM",an increase in the Tyr phosphorylation of STEP substrates
same,LDH release (neuronal cell death),[3],no significant effect on LDH release
same,Recovery of STEP activity with DTT,"[4]; STEP 200 nM preincubated with 5 µM TC-2153, 1 mM DTT",75%
same,Recovery of STEP activity with GSH,"[4]; STEP 200 nM preincubated with 5 µM TC-2153, 1 mM GSH",29%
same,"MWM probe trial, target zone","[5]; 3xTg-AD mice, 24 h after last acquisition day",spent as much time as WT mice in the target zone
same,MWM acquisition phase escape latency,"[5]; 3xTg-AD mice, daily injection 3 h prior to training, days 5 and 6",reversed memory deficits
same,"MWM cued trial escape latency, AD mice","[5]; AD-TC, visible platform, AD-Veh 15.3±3.0",16.0 ± 2.3 s
same,"MWM cued trial escape latency, WT mice","[5]; WT-TC, visible platform, WT-Veh 15.1±1.7",15.6 ± 1.7 s
same,LD50 (acute toxicity),[6],"> 1,000 mg/kg"
same,IC50,[7],220.6 ± 1.3 nM
